Test results published in patent US20050080103A1, “Procedure for asthmatic, and other non-invasive surgery for brain tumor cures” (priority 2003, published 2005).
Entries after “also recorded” stand apart in the source; their conditions may differ.

Test system: asthma (attributed by the author to a brain tumor)
Assay: Self-treatment of the inventor's asthma by repeated deep inhalation of evaporated free base cocain
Conditions: inventor's self-report

COC(=O)[C@H]1[C@@H](OC(=O)c2ccccc2)C[C@@H]2CC[C@H]1N2C [cocain]
Outcome on asthma / asthma attacks (one person, evaporated free base piece about 1/10 gram inhaled once per half hour, 32 sessions over 16 hours, outcome realized 4 months later): effected the cure of my asthma; also recorded: not getting any more asthma attacks | Time until the metabolic use of one inhaled dose came to an end (session duration) (one full deep breath of evaporated free base cocain per session): approximately one half
